Data from patent US20230200424A1, “COMPOSITIONS COMPRISING CYS-PEPTIDES” (Evonik Operations GmbH, priority 2020, published 2023).
“Also recorded” adds a separate entry of the source. Like-named read-outs stand apart in the source and are kept apart here. Where a SMILES comes first, the peptide text is derived from it. Bridges are numbered along the chain shown (N, C = ends). Roman numbers before positions name the chains, in order.

Key:
[1] = Stabilization of 25 mM and 50 mM cysteine solutions against precipitation by Cys-dipeptides under oxidizing conditions (H2O2), turbidity at 600 nm; format: physicochemical; conditions: H2O2 added, after 4.5 hours
Description: (§1) Turbidity caused by precipitation was measured photometrically at 600 nm in a microtiter plate-based assay. Liquid volume per well was 200 μl and measurements were conducted over 24 hours at 37° C. in a microplate reader (Tecan). The plates were not covered with a lid.
(§2) An experiment as described in example 1 was conducted in a microtiter plate. After two hours of incubation at 37° C., 14 μl of a 5 weight % H2O2 solution were added to each well to accelerate oxidation and evaluate stabilization under fully oxidized conditions. […] Turbidity measurements in the microplate reader were continued subsequently. Results are shown in Fehler! Verweisquelle konnte nicht gefunden werden.
To evaluate if the above described stabilization is also possible by addition of other Cys-dipeptides, experiments as described in example 4 were conducted with the exception that reduced cysteine concentrations of 50 mM and 25 mM were used and that the concentrations of added Cys-dipeptides were 0 (=control), 5, 10, 25 and 50 mM. The effect of (Asp-Cys)2, (Cys-Asp)2, (Lys-Cys)2, (Cys-Lys)2, (Ala-Cys)2 and (Pro-Cys)2 was evaluated. All Cys-peptides were able to prevent precipitation from the cysteine solutions after addition of H2O2 Differences in stabilization efficiency were observed between the various Cys-Peptides at cysteine concentrations of 50 mM. The Cys-dipeptides containing lysine residues were the most efficient stabilizers and a molar Cys-peptide to cysteine ratio between 1:2 and 1:5 provided sufficient stability.

[2] = Solubility of (Ala-Cys)2 and its solubilization by addition of cysteine, turbidity at 600 nm; format: physicochemical
Description: Turbid suspensions of 50 mM (Ala-Cys)2 in phosphate buffer at pH=7 were prepared and increasing amounts of cysteine were added. The mixtures were incubated at 37° C. in a microtiter plate (liquid volume per well was 200 μl) and turbidity at 600 nm was measured after 30 minutes. At concentrations of 20 mM of cysteine and higher, (Ala-Cys)2 was fully solubilized and no further reduction of turbidity was measured. Solutions were visually transparent (see FIG. 2).

[3] = pH range between 3 and 9; cited from earlier work
[4] = Stabilization of 50 mM cysteine solution against precipitation by reduced and oxidized Cys-dipeptides under oxidizing conditions (H2O2), turbidity at 600 nm; format: physicochemical; conditions: H2O2 added; for Turbidity at 600 nm: after 4.5 hours
Description: as §1, §2
To evaluate if the above described stabilization is also possible by addition of reduced Cys-dipeptides (=free thiol), the same experimental setup as described in example 4 was chosen. In this case, various concentrations of the reduced dipeptide Cys-Gly and of the oxidized dipeptide (Cys-Gly)2 were added to a 50 mM cysteine solution. Both Cys-peptides were able to prevent precipitation from the cysteine solutions after addition of H2O2.

[5] = Precipitation from a 100 mM cysteine solution with added (Lys-Cys)2, turbidity at 600 nm in microtiter plate; format: physicochemical; conditions: 24 hours
Description: Solutions of substances and dilutions thereof were prepared in 100 mM phosphate buffer, pH=7 in all experiments in all examples. Precipitation could be avoided in a 100 mM solution of cysteine in a 100 mM phosphate buffer at pH=7 by the addition of suitable concentrations of (Lys-Cys)2.
as §1
When 100 mM solutions of cysteine were prepared with 0, 100, 200 or 400 mM (Lys-Cys)2×2 HCl at pH=7, a surprising result was obtained. Precipitation could be seen and measured in the absence of added peptide. […] The precipitates could be observed visually and measured via turbidimetry (see FIG. 1).

[6] = Stabilization of a 100 mM cysteine solution against precipitation by (Lys-Cys)2 under oxidizing conditions (H2O2), turbidity; format: physicochemical
Description: as §1, §2
The mixtures were incubated in a microplate for 2 hours at 37° C. and turbidity was measured photometrically. H2O2 was subsequently added to accelerate oxidation and evaluate stability against precipitation under fully oxidized conditions. Turbidity measurement was continued directly after H2O2 addition. With cysteine alone, the solution turned directly and visibly turbid, when H2O2 was added. With increasing amounts of added (Lys-Cys)2, the amount of precipitate measured via turbidity was reduced.

[7] = 25 mM cysteine solution, Cys-peptide 5 mM
[8] = 25 mM cysteine solution, Cys-peptide 10 mM
[9] = 25 mM cysteine solution, Cys-peptide 25 mM
[10] = 25 mM cysteine solution, Cys-peptide 50 mM
[11] = 50 mM cysteine solution, Cys-peptide 5 mM
[12] = 50 mM cysteine solution, Cys-peptide 10 mM
[13] = 50 mM cysteine solution, Cys-peptide 25 mM
[14] = 50 mM cysteine solution, Cys-peptide 50 mM

Molecule | Turbidity at 600 nm [1, 7] [AU] | Turbidity at 600 nm [1, 8] [AU] | Turbidity at 600 nm [1, 9] [AU] | Turbidity at 600 nm [1, 10] [AU] | Turbidity at 600 nm [1, 11] [AU] | Turbidity at 600 nm [1, 12] [AU] | Turbidity at 600 nm [1, 13] [AU] | Turbidity at 600 nm [1, 14] [AU] | other results
(Cys-Lys)2 | 0.044 | 0.050 | 0.068 | 0.084 | 0.390 | 0.092 | 0.067 | 0.077 | –
(Asp-Cys)2 | 0.038 | 0.039 | 0.038 | 0.040 | 1.453 | 1.301 | 0.039 | 0.042 | –
C[C@H](N)C(=O)N[C@@H](CSSC[C@H](NC(=O)[C@H](C)N)C(=O)O)C(=O)O [(Ala-Cys)2] (I: H-Ala-Cys-OH / II: H-Ala-Cys-OH; disulfide I:2-II:2; N-terminus and C-terminus assumed) | – | – | – | – | – | – | – | – | solubility ([2]; 50 mM (Ala-Cys)2 suspension, phosphate buffer pH=7, 37° C., turbidity at 600 nm after 30 minutes, read-out: concentration of cysteine at which 50 mM (Ala-Cys)2 was fully solubilized): ≥ 20 mM; solubility ([2]; pH=7 and 37° C., read-out: maximum solubility): < 50 mM
N[C@@H](CSSC[C@H](N)C(=O)O)C(=O)O [cystine] | – | – | – | – | – | – | – | – | solubility [3]: < 1 mM
(Cys-Gly)2 | – | – | – | – | – | – | – | – | Turbidity at 600 nm ([4]; Cys-peptide 5 mM): 1.07 AU; Turbidity at 600 nm ([4]; Cys-peptide 10 mM): 0.07 AU; Turbidity at 600 nm ([4]; Cys-peptide 25 mM): 0.04 AU; Turbidity at 600 nm ([4]; Cys-peptide 50 mM): 0.04 AU; peptide concentration at which precipitation was completely suppressed [4]: 25 mM
(Pro-Cys)2 | 0.078 | 0.039 | 0.040 | 0.042 | 1.539 | 1.379 | 0.762 | 0.118 | –
(Cys-Asp)2 | 0.081 | 0.037 | 0.038 | 0.040 | 1.702 | 1.523 | 0.279 | 0.039 | –
Cys-Gly | – | – | – | – | – | – | – | – | Turbidity at 600 nm ([4]; Cys-peptide 5 mM): 0.58 AU; Turbidity at 600 nm ([4]; Cys-peptide 10 mM): 0.37 AU; Turbidity at 600 nm ([4]; Cys-peptide 25 mM): 0.26 AU; Turbidity at 600 nm ([4]; Cys-peptide 50 mM): 0.04 AU; peptide concentration at which precipitation was completely suppressed [4]: 50 mM
(Lys-Cys)2 | 0.039 | 0.041 | 0.042 | 0.047 | 0.946 | 0.556 | 0.045 | 0.047 | precipitation (visual, turbidimetry) ([5]; 100 mM cysteine with 100 mM (Lys-Cys)2, pH=7, 37° C.): accelerated precipitation; precipitation (visual, turbidimetry) ([5]; 100 mM cysteine with 200 mM (Lys-Cys)2, pH=7, 37° C.): effectively prevented precipitation; precipitation (visual, turbidimetry) ([5]; 100 mM cysteine with 400 mM (Lys-Cys)2, pH=7, 37° C.): effectively prevented precipitation; precipitate after H2O2 addition ([6]; 100 mM cysteine with 400 mM (Lys-Cys)2): no precipitate was observed; also recorded: remained completely clear; turbidity directly after addition of H2O2 ([6]; 100 mM cysteine with (Lys-Cys)2, 2 hours at 37° C., then H2O2): no immediate increase in turbidity was observed; turbidity increase after H2O2 addition ([6]; 100 mM cysteine, increasing concentrations of (Lys-Cys)2): strongly reduced
